Results: patent US5591728A, “New phosphonic acid compounds” (Adir Et Compagnie, priority 1993, dated 1997)
pIC50: −log10 of the molar value. Where a name gives a salt, the structure may show the parent alone.

What was measured:
[1] = system: pressor responses obtained with big ET-1; assay: In vitro study on perfused isolated rat kidney: pressor response to big ET-1; design: species or system male Wistar rats; details: big ET-1 0.4 nmol bolus
Method: The studies are performed on kidneys prepared from male Wistar rats (300400 g). The rats are anesthetized with pentobarbitone sodium (50 mg/kg i.p.) and the left kidney is prepared so as to permit perfusion with Tyrode solution. The variations in perfusion pressure are measured continuously. The perfusion flow rate is 6 ml/min. After stabilization, a bolus injection of ET- 1 (0.03 nmol) or of big ET-1 (0.4 nmol) is performed and the pressor response is recorded. […] The IC50 values of the products are calculated and the results are given in μM.

[2] = system: big ET-1-induced pressor responses (inhibition of ECE); assay: In vivo study on pithed rats: big ET-1-induced pressor response; design: species or system Sprague-Dawley rats; details: for IC50 with respect to big ET-1: big ET-1 1 nmol/kg injection, product given by infusion
From the text: (§1) Sprague-Dawley rats (300400 g) are anesthetized with ether. The animals are then pithed and placed under artificial respiration. The vagus nerves are sectioned and the carotid arteries ligated. A catheter is introduced into one of the carotid arteries to measure arterial blood pressure. A second catheter is introduced into the vein of the penis to enable substances to be injected.
After a stabilization period, the animals receive an injection of endothelin-1 (ET-1; 0.5 nmol/kg) or its precursor, big endothelin-1 (big ET-1; 1 nmol/kg).

[3] = system: ET-1-induced hypertension; assay: In vivo study on pithed rats: ET-1-induced hypertension; design: species or system Sprague-Dawley rats; details: ET-1 0.5 nmol/kg
From the text: as §1
After a stabilization period, the animals receive an injection of endothelin-1 (ET-1; 0.5 nmol/kg) or its precursor, big endothelin-1 (big ET-1; 1 nmol/kg). The pressor responses are recorded and, after the pressure has returned to its initial value (1 h 30 min to 2 hours), a second injection of ET-1 or of big ET-1 is given in the presence or absence of an infusion of a product of the invention or of the reference substance, phosphoramidon. Phosphoramidon and the products of the invention had no effect on ET-1-induced hypertension.

Compound	pIC50 [1]	IC50 with respect to big ET-1 [2]	inhibition of pressor responses obtained with big ET-1 ([1]; in words)	inhibition of big ET-1-induced pressor responses ([2]; big ET-1 1 nmol/kg, in words)	effect on ET-1-induced hypertension [3]
CC(C)C[C@H](NP(=O)(O)OCCC(O)CO)C(=O)N[C@@H](Cc1c[nH]c2ccccc12)C(=O)O (stereo partly drawn) [Example 12, N-[(3,4-Dihydroxybutoxy)hydroxyphosphinyl]-(S)Leu-(S) Trp-OH dilithium salt]	–	140 µg/kg/min	–	–	–
CC(C)C[C@H](NP(=O)(O)O[C@@H]1O[C@@H](C)[C@H](O)[C@@H](O)[C@H]1O)C(=O)N[C@@H](Cc1c[nH]c2ccccc12)C(=O)[O-].CC(C)C[C@H](NP(=O)(O)O[C@@H]1O[C@@H](C)[C@H](O)[C@@H](O)[C@H]1O)C(=O)N[C@@H](Cc1c[nH]c2ccccc12)C(=O)[O-].[Na+].[Na+] [Phosphoramidon, N-[α-(S)-(rhamnopyranosyloxy) hydroxyphosphinyl]-(S)leu-(S) Trp-OH disodium salt, reference compound]	6.05	125 µg/kg/min	substantially inhibited	inhibited big ET-1-induced pressor responses in a dose-dependent manner	no effect
N-[((R)-2,3-Dihydroxypropoxy)hydroxyphosphinyl]-(S)Leu-(S)Trp-OH dilithium salt [Example 10]	–	230 µg/kg/min	–	–	–
N-[((S)-2,3-Dihydroxypropoxy)hydroxyphosphinyl]-(S)Leu-(S)Trp-OH dilithium salt [Example 11]	–	100 µg/kg/min	–	–	–

The next lines start with results.

pIC50 [1]	IC50 with respect to big ET-1 [2]	Compound	inhibition of pressor responses obtained with big ET-1 ([1]; in words)	inhibition of big ET-1-induced pressor responses ([2]; big ET-1 1 nmol/kg, in words)	effect on ET-1-induced hypertension [3]
5.40	100 µg/kg/min	CC(C)C[C@H](NP(=O)(O)OCC(O)CO)C(=O)N[C@@H](Cc1c[nH]c2ccccc12)C(=O)O (stereo partly drawn) [Example 1, N-[(2,3-Dihydroxypropoxy)hydroxyphosphinyl]-(S)Leu-(S) Trp-OH disodium salt]	–	–	–
5.30	280 µg/kg/min	CCOC(=O)[C@H](Cc1c[nH]c2ccccc12)NC(=O)[C@H](CC(C)C)NP(=O)(O)OCCO [Example 3, N-[(2-Hydroxyethoxy)hydroxyphosphinyl]-(S)Leu-(S)Trp-OEt disodium salt]	–	–	–
5.15	430 µg/kg/min	CC(C)C[C@H](NP(=O)(O)OCCO)C(=O)N[C@@H](Cc1c[nH]c2ccccc12)C(=O)O [Example 4, N-[(2-Hydroxyethoxy)hydroxyphosphinyl]-(S)Leu-(S)Trp-OH disodium salt]	–	–	–
–	480 µg/kg/min	CC(C)C[C@H](NP(=O)(O)OC(CO)CO)C(=O)N[C@@H](Cc1c[nH]c2ccccc12)C(=O)O [Example 8, N-{[(1-Hydroxymethyl-2-hydroxy)ethoxy]hydroxyphosphinyl]-(S)Leu-(S) Trp-OH dilithium salt]	–	–	–
–	200 µg/kg/min	CCOC(=O)[C@H](Cc1c[nH]c2ccccc12)NC(=O)[C@H](CC(C)C)NP(=O)(O)OCCCN [Example 9, N-[(3-Aminopropoxy)hydroxyphosphinyl]-(S)Leu-(S)Trp-OEt lithium salt]	–	–	–
